Test results published in the NIST ThermoML archive (doi:10.1021/je5010214).
Numbers after ± are expanded uncertainties.

Settings: Liquid, Vibrating tube method

CC(C)CO [2-methyl-1-propanol]
Settings | mass density [kg/m3]
323.15 K, 32903 kPa | 805.081 ± 0.86
323.15 K, 33102 kPa | 805.154 ± 0.87
323.15 K, 33950 kPa | 805.707 ± 0.87
323.15 K, 34958 kPa | 806.425 ± 0.87
323.15 K, 37883 kPa | 808.369 ± 0.88
323.15 K, 39891 kPa | 809.68 ± 0.88
323.15 K, 42065 kPa | 811.076 ± 0.89
323.15 K, 44846 kPa | 812.852 ± 0.89
323.15 K, 49935 kPa | 815.968 ± 0.91
323.15 K, 52064 kPa | 817.249 ± 0.91
323.15 K, 54897 kPa | 818.944 ± 0.92
323.15 K, 57818 kPa | 820.634 ± 0.93
323.15 K, 59855 kPa | 821.787 ± 0.93
323.15 K, 61856 kPa | 822.928 ± 0.94
323.15 K, 64838 kPa | 824.6 ± 0.94
323.15 K, 65957 kPa | 825.209 ± 0.94
323.16 K, 1117.8 kPa | 779.897 ± 0.81
323.16 K, 47886 kPa | 814.721 ± 0.9
328.15 K, 96.5 kPa | 774.907 ± 0.81
328.15 K, 395.8 kPa | 775.157 ± 0.81
328.15 K, 904.1 kPa | 775.603 ± 0.81
328.15 K, 1030.6 kPa | 775.74 ± 0.81
328.15 K, 2999.3 kPa | 777.646 ± 0.81
328.15 K, 5042 kPa | 779.515 ± 0.81
328.15 K, 10121 kPa | 784.077 ± 0.82
328.15 K, 11905 kPa | 785.621 ± 0.82
328.15 K, 24953 kPa | 795.929 ± 0.85
328.15 K, 27874 kPa | 798.098 ± 0.86
328.15 K, 29949 kPa | 799.588 ± 0.86
328.15 K, 31948 kPa | 800.996 ± 0.86
328.15 K, 33061 kPa | 801.681 ± 0.87
328.15 K, 34111 kPa | 802.415 ± 0.87
328.15 K, 34984 kPa | 803.007 ± 0.87
328.15 K, 37913 kPa | 805.001 ± 0.88
328.15 K, 41958 kPa | 807.674 ± 0.89
328.15 K, 44806 kPa | 809.5 ± 0.9
328.15 K, 55150 kPa | 815.995 ± 0.92
328.15 K, 58100 kPa | 817.75 ± 0.93
328.15 K, 60045 kPa | 818.881 ± 0.93
328.15 K, 62082 kPa | 820.048 ± 0.94
328.15 K, 66095 kPa | 822.334 ± 0.95
328.16 K, 515 kPa | 775.262 ± 0.81
328.16 K, 2069.7 kPa | 776.794 ± 0.81
328.16 K, 6936.7 kPa | 781.257 ± 0.82
328.16 K, 8874.2 kPa | 782.985 ± 0.82
328.16 K, 14954 kPa | 788.149 ± 0.83
328.16 K, 17891 kPa | 790.513 ± 0.83
328.16 K, 20040 kPa | 792.21 ± 0.84
328.16 K, 22054 kPa | 793.773 ± 0.84
328.16 K, 33018 kPa | 801.745 ± 0.87
328.16 K, 39966 kPa | 806.346 ± 0.88
328.16 K, 47820 kPa | 811.414 ± 0.9
328.16 K, 49817 kPa | 812.637 ± 0.91
328.16 K, 52099 kPa | 814.145 ± 0.91
328.16 K, 64955 kPa | 821.692 ± 0.95
333.15 K, 95.7 kPa | 770.629 ± 0.81
333.15 K, 913.6 kPa | 771.467 ± 0.81
333.15 K, 6965.6 kPa | 777.259 ± 0.82
333.15 K, 8937.3 kPa | 779.076 ± 0.82
333.15 K, 9995.1 kPa | 780.005 ± 0.82
333.15 K, 11970 kPa | 781.72 ± 0.82
333.15 K, 14915 kPa | 784.255 ± 0.83
333.15 K, 22033 kPa | 790.027 ± 0.84
333.15 K, 29996 kPa | 796.045 ± 0.86
333.15 K, 31986 kPa | 797.49 ± 0.87
333.15 K, 32928 kPa | 798.124 ± 0.87
333.15 K, 41792 kPa | 804.162 ± 0.89
333.15 K, 47830 kPa | 808.087 ± 0.91
333.15 K, 49895 kPa | 809.38 ± 0.91
333.15 K, 51876 kPa | 810.61 ± 0.92
333.15 K, 54830 kPa | 812.44 ± 0.92
333.15 K, 58116 kPa | 814.429 ± 0.93
333.15 K, 59975 kPa | 815.509 ± 0.94
333.15 K, 61974 kPa | 816.676 ± 0.94
333.15 K, 65057 kPa | 818.467 ± 0.95
333.15 K, 66042 kPa | 819.039 ± 0.95
333.16 K, 295.9 kPa | 770.818 ± 0.81
333.16 K, 574.5 kPa | 771.11 ± 0.81
333.16 K, 1069.5 kPa | 771.621 ± 0.81
333.16 K, 2110.6 kPa | 772.649 ± 0.81
333.16 K, 3100 kPa | 773.622 ± 0.81
333.16 K, 5034 kPa | 775.464 ± 0.81
333.16 K, 17954 kPa | 786.777 ± 0.84
333.16 K, 19985 kPa | 788.397 ± 0.84
333.16 K, 24923 kPa | 792.261 ± 0.85
333.16 K, 27922 kPa | 794.514 ± 0.86
333.16 K, 33031 kPa | 798.137 ± 0.87
333.16 K, 34001 kPa | 798.837 ± 0.87
333.16 K, 35030 kPa | 799.567 ± 0.87
333.16 K, 37925 kPa | 801.558 ± 0.88
333.16 K, 39862 kPa | 802.861 ± 0.89
333.16 K, 44782 kPa | 806.126 ± 0.9
338.15 K, 72.5 kPa | 765.803 ± 0.81
338.15 K, 267.1 kPa | 766.009 ± 0.81
338.15 K, 496.5 kPa | 766.255 ± 0.81
338.15 K, 821.3 kPa | 766.6 ± 0.81
338.15 K, 1007.7 kPa | 766.796 ± 0.81
338.15 K, 2012.4 kPa | 767.824 ± 0.81
338.15 K, 3039.1 kPa | 768.845 ± 0.81
338.15 K, 7018.5 kPa | 772.739 ± 0.82
338.15 K, 8987.6 kPa | 774.596 ± 0.82
338.15 K, 10054 kPa | 775.578 ± 0.82
338.15 K, 18105 kPa | 782.627 ± 0.84
338.15 K, 22120 kPa | 785.947 ± 0.85
338.15 K, 28029 kPa | 790.565 ± 0.86
338.15 K, 32010 kPa | 793.527 ± 0.87
338.15 K, 32776 kPa | 794.103 ± 0.87
338.15 K, 32995 kPa | 794.184 ± 0.87
338.15 K, 33922 kPa | 794.869 ± 0.87
338.15 K, 38056 kPa | 797.798 ± 0.88
338.15 K, 42127 kPa | 800.629 ± 0.9
338.15 K, 48090 kPa | 804.572 ± 0.91
338.15 K, 50121 kPa | 805.906 ± 0.92
338.15 K, 52094 kPa | 807.168 ± 0.92
338.15 K, 55116 kPa | 809.055 ± 0.93
338.15 K, 58010 kPa | 810.837 ± 0.94
338.15 K, 60191 kPa | 812.149 ± 0.94
338.15 K, 62244 kPa | 813.373 ± 0.95
338.15 K, 65243 kPa | 815.143 ± 0.96
338.15 K, 65986 kPa | 815.583 ± 0.96
338.15 K, 66355 kPa | 815.805 ± 0.96
338.16 K, 5091.1 kPa | 770.879 ± 0.81
338.16 K, 12131 kPa | 777.462 ± 0.83
338.16 K, 15171 kPa | 780.113 ± 0.83
338.16 K, 20167 kPa | 784.349 ± 0.84
338.16 K, 25290 kPa | 788.465 ± 0.85
338.16 K, 30041 kPa | 792.069 ± 0.86
338.16 K, 35102 kPa | 795.7 ± 0.88
338.16 K, 39987 kPa | 799.156 ± 0.89
338.16 K, 45109 kPa | 802.623 ± 0.9
343.15 K, 55.6 kPa | 761.239 ± 0.81
343.15 K, 101.8 kPa | 761.279 ± 0.81
343.15 K, 277.3 kPa | 761.484 ± 0.81
343.15 K, 487.7 kPa | 761.699 ± 0.81
343.15 K, 881.6 kPa | 762.13 ± 0.81
343.15 K, 1037 kPa | 762.294 ± 0.81
343.15 K, 1941.4 kPa | 763.263 ± 0.81
343.15 K, 3000.3 kPa | 764.362 ± 0.81
343.15 K, 4957 kPa | 766.378 ± 0.81
343.15 K, 6956.1 kPa | 768.377 ± 0.82
343.15 K, 8969.5 kPa | 770.304 ± 0.82
343.15 K, 10003 kPa | 771.264 ± 0.82
343.15 K, 11997 kPa | 773.149 ± 0.83
343.15 K, 14895 kPa | 775.758 ± 0.83
343.15 K, 17840 kPa | 778.358 ± 0.84
343.15 K, 20135 kPa | 780.417 ± 0.84
343.15 K, 21925 kPa | 781.908 ± 0.85
343.15 K, 24920 kPa | 784.349 ± 0.85
343.15 K, 27949 kPa | 786.755 ± 0.86
343.15 K, 29863 kPa | 788.238 ± 0.87
343.15 K, 31874 kPa | 789.777 ± 0.87
343.15 K, 32927 kPa | 790.544 ± 0.87
343.15 K, 32981 kPa | 790.602 ± 0.87
343.15 K, 34026 kPa | 791.305 ± 0.88
343.15 K, 35028 kPa | 792.011 ± 0.88
343.15 K, 38080 kPa | 794.257 ± 0.89
343.15 K, 39908 kPa | 795.53 ± 0.89
343.15 K, 41973 kPa | 796.98 ± 0.9
343.15 K, 44972 kPa | 799.034 ± 0.91
343.15 K, 47997 kPa | 801.072 ± 0.91
